Experimental data taken from publication PMC5438973 (Frontiers in Psychiatry, 2017).
Like-named read-outs stand apart in the source and are kept apart here.

Assays:
Male, Wistar rats [1] = test: Schedule-induced polydipsia; format: in vivo, rat; details: for Effect of antagonist on the decrease in excessive water consumption produced by CPD 1: CPD 1 5.6 mg/kg; for Effect on excessive drinking / amount of water consumed / Effect on number of responses emitted (lever pressing for food): acute dosing
Source text: Rats were used in these experiments as they have been utilized for such studies in the past with great success in generating significant polydipsia ([16]). Male, Wistar rats were singly housed, and maintained at approximately 85% of their free-feeding weights with free access to water. Twelve adult male, Wistar rats (Harlan Industries, Indianapolis, IN, USA) were used. They were allowed to acclimate to our vivarium for at least 3 days prior to testing. They were 2 months old at the start of the experiments that lasted approximately 6–8 months and were without explicit experimental experience prior to this study. The rats were singly housed, and maintained at approximately 86–91% of their free-feeding weights with post session supplemental feeding of Lab Diet #5001 for rodents (PMI Nutrition International Inc., St. Louis, MO, USA). Body weights were corrected for the normal growth curve of Wistar rats such that actual body weight of each rat increased over the experimental time frame. Water was available continuously in the individual home cages. Rats were inspected daily 7 days/week by experimenters and veterinary staff.
The experiments were conducted using operant behavior test chambers ENV-007 (Med Associates Inc., Georgia, VT, USA), 30.5 cm × 24.1 cm × 29.2 cm. The test chambers were contained within light and sound attenuating shells. A food trough was mounted 2 cm off the grid floor on the centerline. Two response levers were centered 8 cm off the centerline and 7 cm off the grid floor. Three lights were located above each response lever at 15 cm off the grid floor. All events were controlled and lever-press data were recorded by a Compaq computer running MED-PC Version IV (Med Associates Inc., Georgia, VT, USA). The water bottle located within each chamber was weighed before and after experimental sessions.
Experimental sessions lasted 90 min. Test compounds or drug vehicle were administered on Tuesdays and Fridays, given the stability of performance (within 15% variation of the individual animal). Non-injection, control performances were on Thursdays. […] Dose-effect curves and drug interaction data were created by repeated testing in groups of five to eight rats. Test compounds were administered as described in figure legends. The effects of the compound are expressed as a percent of control for each individual animal. Results were analyzed by ANOVA followed by Dunnett’s multiple comparison (p < 0.05).
Thus, in keeping with the guidelines of animal care and use followed here, we utilized the minimum number of animals required for signal detection.

Male, NIH Swiss mice [2] = test: Rotarod performance; format: in vivo, mouse
Source text: Mice were not pretrained on this task.

Male, NIH Swiss mice [3] = details: 12/dose group
Male, NIH Swiss mice [4] = test: Nestlet-shredding; details: 8/dose group
h5-HT2A = biological target: T1, h5-HT2A (Homo sapiens, UniProt P28223); test: GTP-γ-[35S] functional assay (SPA), AV12 cells; format: biochemical; details: GTPgs functional assay, human recombinant cell line
T1 construct: expressed in transfected cells; host or cells: AV12 cells
T1 sequence (P28223 whole entry): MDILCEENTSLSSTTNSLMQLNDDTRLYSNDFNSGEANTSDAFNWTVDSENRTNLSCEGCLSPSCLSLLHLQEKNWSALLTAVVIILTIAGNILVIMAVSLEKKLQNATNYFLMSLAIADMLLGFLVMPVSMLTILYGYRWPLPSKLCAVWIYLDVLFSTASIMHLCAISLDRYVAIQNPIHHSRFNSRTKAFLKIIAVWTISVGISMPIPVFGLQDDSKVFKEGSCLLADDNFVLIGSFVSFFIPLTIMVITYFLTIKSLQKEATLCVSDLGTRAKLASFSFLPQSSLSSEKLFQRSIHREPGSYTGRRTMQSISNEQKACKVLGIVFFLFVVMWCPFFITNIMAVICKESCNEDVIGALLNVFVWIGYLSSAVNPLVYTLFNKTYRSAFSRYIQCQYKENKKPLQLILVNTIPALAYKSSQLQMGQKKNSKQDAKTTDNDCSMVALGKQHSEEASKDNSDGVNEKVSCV
Source text: (§1) 5-HT2 receptors are functionally coupled to specific G-proteins. Agonist activation of 5-HT2 G-protein coupled receptors results in the release of GDP from alpha-subunit (G alpha q or G alpha i) of the G-protein and the subsequent binding of GTP. The binding of the stable analog GTP-g-[^35S] is an indicator of receptor activation. Human cloned 5-HT2A, −2B, and −2C receptors were expressed in AV12 cells. GTP-g-[^35S] nucleotide exchange scintillation proximity assay (SPA) was used to measure binding as previously described ([14]).

h5-HT2B = biological target: T2, h5-HT2B (Homo sapiens, UniProt P41595); test: GTP-γ-[35S] functional assay (SPA), AV12 cells; format: biochemical; details: GTPgs functional assay, human recombinant cell line
T2 construct: expressed in transfected cells; host or cells: AV12 cells
T2 sequence (P41595 whole entry): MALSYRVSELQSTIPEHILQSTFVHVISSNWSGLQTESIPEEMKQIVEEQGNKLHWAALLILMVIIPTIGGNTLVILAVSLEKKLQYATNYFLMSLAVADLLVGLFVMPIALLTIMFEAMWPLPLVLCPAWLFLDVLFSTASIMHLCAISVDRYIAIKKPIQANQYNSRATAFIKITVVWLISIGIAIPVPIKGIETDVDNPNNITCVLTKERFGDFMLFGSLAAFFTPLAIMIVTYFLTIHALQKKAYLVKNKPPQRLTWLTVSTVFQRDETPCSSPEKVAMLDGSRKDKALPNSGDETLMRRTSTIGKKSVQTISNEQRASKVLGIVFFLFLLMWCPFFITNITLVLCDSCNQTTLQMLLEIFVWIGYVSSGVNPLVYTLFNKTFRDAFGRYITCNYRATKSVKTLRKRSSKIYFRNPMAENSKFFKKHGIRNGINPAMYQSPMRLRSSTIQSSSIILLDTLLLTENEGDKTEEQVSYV
Source text: as §1

h5-HT2C = biological target: T3, h5-HT2C (Homo sapiens, UniProt P28335); test: GTP-γ-[35S] functional assay (SPA), AV12 cells; format: biochemical; details: GTPgs functional assay, human recombinant cell line
T3 construct: expressed in transfected cells; host or cells: AV12 cells
T3 sequence (P28335 33-458): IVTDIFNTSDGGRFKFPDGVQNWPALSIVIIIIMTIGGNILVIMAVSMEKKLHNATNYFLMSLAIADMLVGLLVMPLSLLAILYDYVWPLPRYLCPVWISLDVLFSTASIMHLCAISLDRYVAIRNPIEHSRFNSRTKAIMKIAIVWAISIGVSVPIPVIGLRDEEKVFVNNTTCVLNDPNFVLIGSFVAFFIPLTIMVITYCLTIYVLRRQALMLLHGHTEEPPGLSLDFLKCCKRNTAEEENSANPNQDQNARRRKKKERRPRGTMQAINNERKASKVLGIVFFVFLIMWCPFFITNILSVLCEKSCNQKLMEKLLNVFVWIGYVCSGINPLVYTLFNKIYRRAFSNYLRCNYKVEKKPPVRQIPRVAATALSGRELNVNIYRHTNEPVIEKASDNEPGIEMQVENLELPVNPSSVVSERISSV
Source text: as §1

Male, NIH Swiss mice [5] = details: mouse, in vivo, 60 min
Male, Wistar rats [6] = test: Isoproterenol-induced drinking; format: in vivo, rat; details: (±)-isoproterenol 30 μg/kg, s.c.
Experimental: Male, Wistar rats (different from those rats used in the schedule-induced polydipsia studies) were used. They were 331 ± 11 g at the initiation of this study. Compound 1 (5.6 mg/kg, s.c.) was evaluated for its ability to reduce drinking. (±)-isoproterenol (30 μg/kg, s.c.) was given to induce drinking (n = 5–20 rat/group). Ten minutes after vehicle or (±)-isoproterenol injection, rats were given either vehicle or Compound 1 and a 60 min session began in which the rats in individual housing cages were given access to water 20 min after the second injection. The weight of the water bottle before and after the 60 min period was measured to the nearest 0.1 g. After the experiment, the animals were returned to their living cages with continuous access to food and water.

Male, NIH Swiss mice [7] = test: Locomotor activity; details: 12/dose group
[8] = fluoxetine 30 mg/kg with SB-242084 3 mg/kg

**Q.** `COc1cccc([C@H](O)C2CCN(CCc3ccc(F)cc3)CC2)c1OC` [MDL100907, (R)-(2,3-dimethoxyphenyl)-[1-[2-(4-fluorophenyl)ethyl]-4-piperidyl]methanol] was tested. Which “Effect of antagonist on the decrease in excessive water consumption produced by CPD 1” value (Male, Wistar rats [1]) did it give?
**A.** Its value is “did not significantly alter”.

**Q.** `CCCC(C)C1(CC)C(=O)NC(=O)NC1=O` (stereo not shown) [Pentobarbital, pentobarbital] was tested. Which “Rotarod, minimal effective dose” value (Male, NIH Swiss mice [2]; mice, 12/dose group) did it give?
**A.** The value was 5.6 milligrams per kilogram.

**Q.** What about the “Marble-burying, minimal effective dose” value (Male, NIH Swiss mice [3]) of the same compound?
**A.** The value was over 17 milligrams per kilogram.

**Q.** And the “Nestlet-shredding, minimal effective dose” value (Male, NIH Swiss mice [4])?
**A.** The value was 10 milligrams per kilogram.

**Q.** For `Clc1cccc(N2CCNCC2)c1` [mCPP, meta-chlorophenylpiperazine, reference compound], which Emax (h5-HT2A) is on record?
**A.** The Emax was 88 ± 2%.

**Q.** What about the Emax (h5-HT2B) of the same compound?
**A.** The Emax was 84 ± 2%.

**Q.** And the Emax (h5-HT2C)?
**A.** Its Emax is 99 ± 2%.

**Q.** What about the “Effect on excessive drinking / amount of water consumed” value (from here on “Effect on excessive drinking / amount”) (Male, Wistar rats [1]; given alone) of the same compound?
**A.** Its value is “significantly decreased”.

**Q.** What about the “Effect on number of responses emitted (lever pressing for food)” value (shortened to “Effect on number of responses emitted”) (Male, Wistar rats [1]; given alone) of the same compound?
**A.** The value was “significantly decreased”.

**Q.** Which results are given for `CNCCC(Oc1ccc(C(F)(F)F)cc1)c1ccccc1` (stereo not shown) [Fluoxetine, fluoxetine]?
**A.** Responses (Rsp) in percent of controls (Male, Wistar rats [1]; 10 mg/kg given alone): 102.3% of controls; Water consumed (H2O) in percent of controls (Male, Wistar rats [1]; 10 mg/kg given alone): 66.7% of controls; Responses (Rsp) in percent of controls (Male, Wistar rats [1]; 30 mg/kg, i.p., given alone): 6% of controls; Water consumed (H2O) in percent of controls (Male, Wistar rats [1]; 30 mg/kg, i.p., given alone): 8% of controls; Dose at which statistically significant reduction of excessive drinking was detected (Male, Wistar rats [1]; Dunnett p < 0.05): 20 mg/kg; Dose at which statistically significant reduction of food-maintained responding was detected (Male, Wistar rats [1]; Dunnett p < 0.05): 20 mg/kg; Water consumed (H2O) in percent of controls (Male, Wistar rats [1]; fluoxetine 10 mg/kg with SB-242084 3 mg/kg): 99.2% of controls; Responses (Rsp) in percent of controls (Male, Wistar rats [1]; [8]): 92.7% of controls; Water consumed (H2O) in percent of controls (Male, Wistar rats [1]; [8]): 101.4% of controls; Rotarod, minimal effective dose (Male, NIH Swiss mice [2]; male, NIH Swiss, mouse, in vivo, 2 min): >30 milligrams per kilogram; Marble-burying, minimal effective dose (Male, NIH Swiss mice [3]): 10 milligrams per kilogram; Locomotor activity, minimal effective dose (Male, NIH Swiss mice [5]): >10 milligrams per kilogram; Nestlet-shredding, minimal effective dose (Male, NIH Swiss mice [4]): 10 milligrams per kilogram

**Q.** `CC(C)NCC(O)c1ccc(O)c(O)c1` (stereo not shown) [Isoproterenol, isoproterenol, reference compound] was tested. Which “Increase of water consumption relative to vehicle-treated rats” value (Male, Wistar rats [6]) did it give?
**A.** The value was 432%.

**Q.** Which EC50 (h5-HT2A) does the source give for `C[C@H](N)Cn1ccc2cc(F)c(Cl)cc21` [Ro 60-0175] here?
**A.** The EC50 was 130 ± 1 nM.

**Q.** What about the Emax (h5-HT2A) of the same compound?
**A.** Its Emax is 59 ± 1%.

**Q.** And the EC50 (h5-HT2B)?
**A.** The EC50 was 57 ± 1 nM.

**Q.** What about the Emax (h5-HT2B) of the same compound?
**A.** Its Emax is 58 ± 1%.

**Q.** And the EC50 (h5-HT2C)?
**A.** Its EC50 is 5.1 ± 1 nM.

**Q.** What about the Emax (h5-HT2C) of the same compound?
**A.** Its Emax is 104 ± 1%.

**Q.** What about the “Effect on excessive drinking / amount” value (Male, Wistar rats [1]; given alone) of the same compound?
**A.** Its value is “significantly decreased”.

**Q.** And the “Effect on number of responses emitted” value (Male, Wistar rats [1]; given alone)?
**A.** Its value is “significantly decreased”.

**Q.** What about the “Rotarod, minimal effective dose” value (Male, NIH Swiss mice [2]; mice, 12/dose group) of the same compound?
**A.** Its value is “greater than 1 milligrams per kilogram”.

**Q.** What about the “Rotarod, minimal effective dose” value (Male, NIH Swiss mice [2]; mice, 12/dose group, listed as RO 60-0175) of the same compound?
**A.** Its value is over 10 milligrams per kilogram.

**Q.** And the “Marble-burying, minimal effective dose” value (Male, NIH Swiss mice [3])?
**A.** Its value is 0.1 milligrams per kilogram.

**Q.** What about the “Nestlet-shredding, minimal effective dose” value (Male, NIH Swiss mice [4]) of the same compound?
**A.** Its value is “less than 1 milligrams per kilogram”.

**Q.** What about the “Nestlet-shredding, minimal effective dose” value (Male, NIH Swiss mice [4]; listed as RO 60-0175) of the same compound?
**A.** Its value is under 1 milligrams per kilogram.

**Q.** What about the “Locomotor activity, minimal effective dose” value (Male, NIH Swiss mice [7]) of the same compound?
**A.** Its value is “greater than 10 milligrams per kilogram”.

**Q.** What about the “Locomotor activity, minimal effective dose” value (Male, NIH Swiss mice [7]; listed as RO 60-0175) of the same compound?
**A.** Its value is over 1 milligrams per kilogram.

**Q.** How did the “Effect on excessive drinking / amount” value (Male, Wistar rats [1]; given alone) turn out when `CN(C)CCCN1c2ccccc2CCc2ccc(Cl)cc21` [Clomipramine, clomipramine] was run?
**A.** Its value is “decreased”.

**Q.** And the “Effect on number of responses emitted” value (Male, Wistar rats [1]; given alone)?
**A.** The value was “decreased”.

**Q.** For `C[C@H](N)Cc1ccccc1` [D-amphetamine], which “Effect on excessive drinking / amount” value (Male, Wistar rats [1]; given alone) is on record?
**A.** Its value is “decreased”.

**Q.** And the “Effect on number of responses emitted” value (Male, Wistar rats [1]; given alone)?
**A.** Its value is “increased”.

**Q.** Which results are given for `Cc1cc2c(cc1Cl)N(C(=O)Nc1ccc(Oc3cccnc3C)nc1)CC2` [SB242084, 6-chloro-5-methyl-N-{6-[(2-methylpyridin-3-yl)oxy]pyridin-3-yl}indoline-1-carboxamide]?
**A.** Responses in percent of control (Male, Wistar rats [1]; 3 mg/kg given alone): 191.2% of controls; Water consumed (H2O) in percent of control (Male, Wistar rats [1]; 3 mg/kg given alone): 112.1% of controls; Effect of antagonist on the decrease in excessive water consumption produced by CPD 1 (Male, Wistar rats [1]): prevented; Effect of antagonist on the effects of D-amphetamine (Male, Wistar rats [1]; SB242084 3 mg/kg, D-amphetamine 3 mg/kg): did not alter; Effect of antagonist on the decreases in water consumption and response output produced by fluoxetine (Male, Wistar rats [1]; SB-242084 3 mg/kg, fluoxetine 30 mg/kg): significantly attenuated; Effect on excessive drinking / amount of water consumed (Male, Wistar rats [1]; given alone): did not significantly affect; Effect on number of responses emitted (lever pressing for food) (Male, Wistar rats [1]; given alone): increased
